How the values were obtained:
Assay in all cases: relative viability (nuclei count vs DMSO), 5 days (fraction); higher = more cells survive
EMC-BAC-2 = test system: EMC-BAC-2
How it was run: (§1)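 Relative viability is defined as nuclei in treated wells over nuclei in vehicle wells. Duplicate plates were run and medians reported. Lung cancer cell lines in 1536-well plates were dosed by pin tool one day after seeding, with one drug or with a fixed anchor-drug dose plus five library-drug doses (not always all listed) in √10 steps, and nuclei were counted after 5 days.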

LK-2 = test system: LK-2
How it was run: as §1

NCI-H1755 = test system: NCI-H1755
How it was run: as §1

HCC-366 = test system: HCC-366
How it was run: as §1

NCI-H1437 = test system: NCI-H1437
How it was run: as §1

NCI-H596 = test system: NCI-H596
How it was run: as §1

NCI-H1734 = test system: NCI-H1734
How it was run: as §1

ABC-1 = test system: ABC-1
How it was run: as §1

NCI-H3122 = test system: NCI-H3122
How it was run: as §1

RERF-LC-KJ = test system: RERF-LC-KJ
How it was run: as §1

NCI-H441 = test system: NCI-H441
How it was run: as §1

CAL-12T = test system: CAL-12T
How it was run: as §1

UMC-11 = test system: UMC-11
How it was run: as §1

SK-LU-1 = test system: SK-LU-1
How it was run: as §1

NCI-H1651 = test system: NCI-H1651
How it was run: as §1

PC-3 [JPC-3] = test system: PC-3 [JPC-3]
How it was run: as §1

HOP-62 = test system: HOP-62
How it was run: as §1

COR-L23 = test system: COR-L23
How it was run: as §1

NCI-H2347 = test system: NCI-H2347
How it was run: as §1

NCI-H727 = test system: NCI-H727
How it was run: as §1

HARA = test system: HARA
How it was run: as §1

NCI-H1563 = test system: NCI-H1563
How it was run: as §1

CCNC(=O)c1noc(-c2cc(C(C)C)c(O)cc2O)c1-c1ccc(CN2CCOCC2)cc1 [Luminespib] + C[C@]1(O)C[C@@H](c2nc(-c3ccc4ccc(-c5ccccc5)nc4c3)c3c(N)nccn32)C1 [Linsitinib] (partner 1 µM)
relative viability (EMC-BAC-2; first compound 0.002 µM): 0.793
relative viability (EMC-BAC-2; first compound 0.006325 µM): 0.783
relative viability (EMC-BAC-2; first compound 0.02 µM): 0.665
relative viability (EMC-BAC-2; first compound 0.06325 µM): 0.788
relative viability (EMC-BAC-2; first compound 0.2 µM): 0.901
relative viability (LK-2; first compound 0.002 µM): 0.747
relative viability (LK-2; first compound 0.006325 µM): 0.522
relative viability (LK-2; first compound 0.02 µM): 0.455
relative viability (LK-2; first compound 0.06325 µM): 0.301
relative viability (LK-2; first compound 0.2 µM): 0.109
relative viability (NCI-H1755; first compound 0.002 µM): 0.974
relative viability (NCI-H1755; first compound 0.006325 µM): 0.944
relative viability (NCI-H1755; first compound 0.02 µM): 0.98
relative viability (NCI-H1755; first compound 0.06325 µM): 0.946
relative viability (NCI-H1755; first compound 0.2 µM): 0.921
relative viability (HCC-366; first compound 0.002 µM): 0.56
relative viability (HCC-366; first compound 0.006325 µM): 0.696
relative viability (HCC-366; first compound 0.02 µM): 0.462
relative viability (HCC-366; first compound 0.06325 µM): 0.0199
relative viability (HCC-366; first compound 0.2 µM): 0.0167
relative viability (NCI-H1437; first compound 0.002 µM): 1.06
relative viability (NCI-H1437; first compound 0.006325 µM): 0.989
relative viability (NCI-H1437; first compound 0.02 µM): 1.08
relative viability (NCI-H1437; first compound 0.06325 µM): 0.22
relative viability (NCI-H1437; first compound 0.2 µM): 0.0998
relative viability (NCI-H596; first compound 0.002 µM): 1.06
relative viability (NCI-H596; first compound 0.006325 µM): 0.995
relative viability (NCI-H596; first compound 0.06325 µM): 1.06
relative viability (NCI-H596; first compound 0.2 µM): 0.907
relative viability (NCI-H1734; first compound 0.002 µM): 0.917
relative viability (NCI-H1734; first compound 0.006325 µM): 0.792
relative viability (NCI-H1734; first compound 0.02 µM): 0.7
relative viability (NCI-H1734; first compound 0.06325 µM): 0.258
relative viability (NCI-H1734; first compound 0.2 µM): 0.167
relative viability (ABC-1; first compound 0.002 µM): 0.869
relative viability (ABC-1; first compound 0.006325 µM): 0.941
relative viability (ABC-1; first compound 0.02 µM): 0.676
relative viability (ABC-1; first compound 0.06325 µM): 0.257
relative viability (ABC-1; first compound 0.2 µM): 0.227
relative viability (NCI-H3122; first compound 0.002 µM): 0.936
relative viability (NCI-H3122; first compound 0.006325 µM): 0.973
relative viability (NCI-H3122; first compound 0.02 µM): 0.945
relative viability (NCI-H3122; first compound 0.06325 µM): 0.172
relative viability (NCI-H3122; first compound 0.2 µM): 0.146
relative viability (RERF-LC-KJ; first compound 0.002 µM): 0.9
relative viability (RERF-LC-KJ; first compound 0.006325 µM): 0.846
relative viability (RERF-LC-KJ; first compound 0.02 µM): 0.976
relative viability (RERF-LC-KJ; first compound 0.06325 µM): 0.968
relative viability (RERF-LC-KJ; first compound 0.2 µM): 0.366
relative viability (NCI-H441; first compound 0.002 µM): 0.797
relative viability (NCI-H441; first compound 0.006325 µM): 0.5
relative viability (NCI-H441; first compound 0.02 µM): 0.485
relative viability (NCI-H441; first compound 0.06325 µM): 0.108
relative viability (NCI-H441; first compound 0.2 µM): 0.0934
relative viability (CAL-12T; first compound 0.002 µM): 0.761
relative viability (CAL-12T; first compound 0.006325 µM): 0.787
relative viability (CAL-12T; first compound 0.02 µM): 0.72
relative viability (CAL-12T; first compound 0.06325 µM): 0.128
relative viability (CAL-12T; first compound 0.2 µM): 0.115
relative viability (UMC-11; first compound 0.002 µM): 0.997
relative viability (UMC-11; first compound 0.006325 µM): 0.993
relative viability (UMC-11; first compound 0.02 µM): 0.962
relative viability (UMC-11; first compound 0.06325 µM): 0.648
relative viability (UMC-11; first compound 0.2 µM): 0.181
relative viability (SK-LU-1; first compound 0.002 µM): 1.02
relative viability (SK-LU-1; first compound 0.006325 µM): 0.89
relative viability (SK-LU-1; first compound 0.02 µM): 0.474
relative viability (SK-LU-1; first compound 0.06325 µM): 0.193
relative viability (SK-LU-1; first compound 0.2 µM): 0.178
relative viability (NCI-H1651; first compound 0.002 µM): 0.874
relative viability (NCI-H1651; first compound 0.006325 µM): 0.983
relative viability (NCI-H1651; first compound 0.02 µM): 1.08
relative viability (NCI-H1651; first compound 0.06325 µM): 0.308
relative viability (NCI-H1651; first compound 0.2 µM): 0.174
relative viability (PC-3 [JPC-3]; first compound 0.002 µM): 0.963
relative viability (PC-3 [JPC-3]; first compound 0.006325 µM): 0.939
relative viability (PC-3 [JPC-3]; first compound 0.02 µM): 0.991
relative viability (PC-3 [JPC-3]; first compound 0.06325 µM): 0.997
relative viability (PC-3 [JPC-3]; first compound 0.2 µM): 0.897
relative viability (HOP-62; first compound 0.002 µM): 1.07
relative viability (HOP-62; first compound 0.006325 µM): 0.958
relative viability (HOP-62; first compound 0.02 µM): 0.945
relative viability (HOP-62; first compound 0.06325 µM): 1.12
relative viability (HOP-62; first compound 0.2 µM): 0.934
relative viability (COR-L23; first compound 0.002 µM): 0.946
relative viability (COR-L23; first compound 0.006325 µM): 0.811
relative viability (COR-L23; first compound 0.02 µM): 1.03
relative viability (COR-L23; first compound 0.06325 µM): 0.0654
relative viability (COR-L23; first compound 0.2 µM): 0.0696
relative viability (NCI-H2347; first compound 0.002 µM): 1.03
relative viability (NCI-H2347; first compound 0.02 µM): 0.824
relative viability (NCI-H2347; first compound 0.06325 µM): 0.924
relative viability (NCI-H2347; first compound 0.2 µM): 0.404
relative viability (NCI-H727; first compound 0.002 µM): 0.317
relative viability (NCI-H727; first compound 0.006325 µM): 0.258
relative viability (NCI-H727; first compound 0.02 µM): 0.284
relative viability (NCI-H727; first compound 0.06325 µM): 0.221
relative viability (NCI-H727; first compound 0.2 µM): 0.211
relative viability (HARA; first compound 0.002 µM): 0.85
relative viability (HARA; first compound 0.006325 µM): 0.797
relative viability (HARA; first compound 0.02 µM): 1.12
relative viability (HARA; first compound 0.06325 µM): 0.738
relative viability (HARA; first compound 0.2 µM): 0.0694
relative viability (NCI-H1563; first compound 0.002 µM): 1.34
relative viability (NCI-H1563; first compound 0.006325 µM): 1.13
relative viability (NCI-H1563; first compound 0.02 µM): 1.11
relative viability (NCI-H1563; first compound 0.06325 µM): 0.535
relative viability (NCI-H1563; first compound 0.2 µM): 0.542
